Among the data in PMC7827406, “Structure–Activity Relationship (SAR) Study of Spautin-1 to Entail the Discovery of Novel NEK4 Inhibitors” (International Journal of Molecular Sciences, 2021) are remaining activity values, retold here.

SMILES strings stand for the structures. Where two headings read alike, the source gives them in different places.

What all share (test): biochemical
Set-up in all cases: Eurofins KinaseProfiler full panel at Km ATP, residual kinase activity (%) relative to DMSO

One assay has as its target T1, DRAK2(h) (Homo sapiens, UniProt O94768).
T1 construct: gene STK17B
T1 sequence (O94768 1-372): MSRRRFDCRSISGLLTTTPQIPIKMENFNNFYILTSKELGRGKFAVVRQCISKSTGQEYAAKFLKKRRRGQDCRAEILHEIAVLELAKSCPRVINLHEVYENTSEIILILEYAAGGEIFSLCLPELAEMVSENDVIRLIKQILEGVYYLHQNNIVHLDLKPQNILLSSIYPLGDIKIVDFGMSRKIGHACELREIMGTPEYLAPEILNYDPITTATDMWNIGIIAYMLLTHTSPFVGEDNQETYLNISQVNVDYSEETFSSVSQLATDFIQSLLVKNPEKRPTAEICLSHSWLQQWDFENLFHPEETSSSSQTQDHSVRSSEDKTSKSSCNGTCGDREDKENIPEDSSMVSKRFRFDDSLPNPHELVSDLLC
In a few lines:
(§1)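 Compounds screened at 10 µM in radiometric kinase activity assays at Km ATP, reported as remaining kinase activity (%). A KINOMEscan competition-binding screen at 10 µM measured DNA-tagged kinase retained on immobilized active-site ligand by qPCR.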

The next assay has as its target T2, NEK3(h) (Homo sapiens, UniProt P51956).
T2 sequence (P51956 1-506): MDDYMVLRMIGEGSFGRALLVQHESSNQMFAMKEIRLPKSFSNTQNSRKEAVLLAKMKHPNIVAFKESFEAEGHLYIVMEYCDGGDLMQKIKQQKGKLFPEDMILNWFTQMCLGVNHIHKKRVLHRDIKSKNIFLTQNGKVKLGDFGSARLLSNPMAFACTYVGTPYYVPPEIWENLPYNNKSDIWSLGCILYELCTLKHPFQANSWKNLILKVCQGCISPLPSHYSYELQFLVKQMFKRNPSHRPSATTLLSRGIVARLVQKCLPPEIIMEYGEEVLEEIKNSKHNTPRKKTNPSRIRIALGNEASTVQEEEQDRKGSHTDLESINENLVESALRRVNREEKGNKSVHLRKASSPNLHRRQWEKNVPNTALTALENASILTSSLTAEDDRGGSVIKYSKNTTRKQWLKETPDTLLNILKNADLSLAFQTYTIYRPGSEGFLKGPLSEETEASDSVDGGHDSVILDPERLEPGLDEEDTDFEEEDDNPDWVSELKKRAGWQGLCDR
Put shortly:
as §1

Assay [1] concerns the target T3, PI3 Kinase (p110a(E545K)/p85a)(h) (Homo sapiens, UniProt P42336, E545K).
T3 construct: gene PIK3CA
Put shortly:
as §1

Another assay addresses T4, SGK2(h) (Homo sapiens, UniProt Q9HBY8).
T4 sequence (Q9HBY8 1-367): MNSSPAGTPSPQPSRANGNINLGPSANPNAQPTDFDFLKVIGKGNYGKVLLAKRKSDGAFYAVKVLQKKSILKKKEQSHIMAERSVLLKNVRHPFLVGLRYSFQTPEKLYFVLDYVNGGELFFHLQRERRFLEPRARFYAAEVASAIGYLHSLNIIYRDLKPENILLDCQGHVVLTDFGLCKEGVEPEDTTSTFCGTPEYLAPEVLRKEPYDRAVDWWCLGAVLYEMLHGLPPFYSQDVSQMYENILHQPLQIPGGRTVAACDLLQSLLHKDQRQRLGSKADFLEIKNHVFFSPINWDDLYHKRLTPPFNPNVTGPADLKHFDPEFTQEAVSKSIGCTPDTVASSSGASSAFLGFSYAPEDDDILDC
Put shortly:
as §1

The next assay deals with STK32A(h) (Homo sapiens, UniProt Q8WU08). In a few lines: as §1
Sequence of STK32A(h) (Q8WU08 whole entry): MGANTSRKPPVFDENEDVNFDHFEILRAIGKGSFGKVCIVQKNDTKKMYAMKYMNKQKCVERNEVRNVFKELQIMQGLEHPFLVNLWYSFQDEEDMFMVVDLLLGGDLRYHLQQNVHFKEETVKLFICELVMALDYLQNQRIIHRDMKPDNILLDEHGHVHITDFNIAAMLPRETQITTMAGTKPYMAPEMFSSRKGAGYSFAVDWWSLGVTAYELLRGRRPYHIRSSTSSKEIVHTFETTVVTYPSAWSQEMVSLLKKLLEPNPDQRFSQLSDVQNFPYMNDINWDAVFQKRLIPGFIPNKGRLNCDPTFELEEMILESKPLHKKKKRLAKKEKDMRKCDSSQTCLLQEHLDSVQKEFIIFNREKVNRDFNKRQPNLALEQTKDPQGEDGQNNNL
A further assay addresses T5, TBK1(h) (Homo sapiens, UniProt Q9UHD2).
T5 sequence (Q9UHD2 1-729): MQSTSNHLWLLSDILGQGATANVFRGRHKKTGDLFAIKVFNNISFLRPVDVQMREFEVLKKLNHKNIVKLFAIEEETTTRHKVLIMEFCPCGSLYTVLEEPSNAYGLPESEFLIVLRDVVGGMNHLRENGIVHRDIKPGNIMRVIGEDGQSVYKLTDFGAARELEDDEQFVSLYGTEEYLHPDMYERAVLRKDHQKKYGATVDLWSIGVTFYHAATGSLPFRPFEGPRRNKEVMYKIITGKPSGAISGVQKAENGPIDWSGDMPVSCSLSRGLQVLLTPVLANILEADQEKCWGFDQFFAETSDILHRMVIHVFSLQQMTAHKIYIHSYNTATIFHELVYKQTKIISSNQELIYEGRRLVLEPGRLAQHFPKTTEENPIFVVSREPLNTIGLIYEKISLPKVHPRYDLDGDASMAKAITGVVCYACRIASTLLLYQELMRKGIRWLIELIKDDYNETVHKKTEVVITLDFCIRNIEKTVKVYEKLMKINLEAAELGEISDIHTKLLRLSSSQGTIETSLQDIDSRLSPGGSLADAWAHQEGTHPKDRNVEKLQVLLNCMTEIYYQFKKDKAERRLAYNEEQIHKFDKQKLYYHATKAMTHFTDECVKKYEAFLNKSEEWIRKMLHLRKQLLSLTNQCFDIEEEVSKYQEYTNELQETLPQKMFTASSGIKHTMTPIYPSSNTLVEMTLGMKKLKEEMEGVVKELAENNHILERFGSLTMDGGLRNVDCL
Put shortly:
as §1

The mark [2] stands for this setting: read-out: Residual activity (%) Spautin-1 5aa.
[3] abbreviates: read-out: Residual activity (%) 5as.
The mark [4] stands for this setting: read-out: Residual activity (%) 5at.
The mark [5] stands for this setting: read-out: Residual activity (%) 5ay.

T3 sequence (P42336 whole entry E545K): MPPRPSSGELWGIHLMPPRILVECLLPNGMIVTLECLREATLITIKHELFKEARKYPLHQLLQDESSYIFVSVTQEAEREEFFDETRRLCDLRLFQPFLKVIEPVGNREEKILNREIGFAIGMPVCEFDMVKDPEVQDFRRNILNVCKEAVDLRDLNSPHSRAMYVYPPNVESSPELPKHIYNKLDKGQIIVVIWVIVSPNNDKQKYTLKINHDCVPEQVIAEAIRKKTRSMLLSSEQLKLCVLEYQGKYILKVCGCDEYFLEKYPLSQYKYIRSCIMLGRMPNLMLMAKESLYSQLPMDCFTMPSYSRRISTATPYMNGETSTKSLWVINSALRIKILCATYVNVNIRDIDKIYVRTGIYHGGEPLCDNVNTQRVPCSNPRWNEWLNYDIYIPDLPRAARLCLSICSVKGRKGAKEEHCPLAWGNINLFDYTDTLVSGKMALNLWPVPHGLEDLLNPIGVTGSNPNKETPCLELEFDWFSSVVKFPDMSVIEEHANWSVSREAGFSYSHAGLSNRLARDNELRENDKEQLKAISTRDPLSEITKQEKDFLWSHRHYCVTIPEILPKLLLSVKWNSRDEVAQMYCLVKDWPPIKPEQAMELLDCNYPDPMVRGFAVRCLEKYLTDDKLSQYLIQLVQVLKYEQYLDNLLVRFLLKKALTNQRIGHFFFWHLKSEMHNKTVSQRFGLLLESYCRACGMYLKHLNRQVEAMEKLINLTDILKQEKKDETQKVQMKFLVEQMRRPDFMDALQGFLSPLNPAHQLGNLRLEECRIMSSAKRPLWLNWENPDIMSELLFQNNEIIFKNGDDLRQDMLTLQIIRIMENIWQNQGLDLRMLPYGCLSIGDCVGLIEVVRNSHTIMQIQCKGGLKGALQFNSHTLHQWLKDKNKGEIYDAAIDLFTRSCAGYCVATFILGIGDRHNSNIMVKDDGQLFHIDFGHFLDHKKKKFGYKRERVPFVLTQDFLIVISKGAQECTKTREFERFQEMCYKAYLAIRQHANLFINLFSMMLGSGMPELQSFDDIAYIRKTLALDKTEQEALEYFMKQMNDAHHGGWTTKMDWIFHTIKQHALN
T3 sequence (P27986 whole entry partner): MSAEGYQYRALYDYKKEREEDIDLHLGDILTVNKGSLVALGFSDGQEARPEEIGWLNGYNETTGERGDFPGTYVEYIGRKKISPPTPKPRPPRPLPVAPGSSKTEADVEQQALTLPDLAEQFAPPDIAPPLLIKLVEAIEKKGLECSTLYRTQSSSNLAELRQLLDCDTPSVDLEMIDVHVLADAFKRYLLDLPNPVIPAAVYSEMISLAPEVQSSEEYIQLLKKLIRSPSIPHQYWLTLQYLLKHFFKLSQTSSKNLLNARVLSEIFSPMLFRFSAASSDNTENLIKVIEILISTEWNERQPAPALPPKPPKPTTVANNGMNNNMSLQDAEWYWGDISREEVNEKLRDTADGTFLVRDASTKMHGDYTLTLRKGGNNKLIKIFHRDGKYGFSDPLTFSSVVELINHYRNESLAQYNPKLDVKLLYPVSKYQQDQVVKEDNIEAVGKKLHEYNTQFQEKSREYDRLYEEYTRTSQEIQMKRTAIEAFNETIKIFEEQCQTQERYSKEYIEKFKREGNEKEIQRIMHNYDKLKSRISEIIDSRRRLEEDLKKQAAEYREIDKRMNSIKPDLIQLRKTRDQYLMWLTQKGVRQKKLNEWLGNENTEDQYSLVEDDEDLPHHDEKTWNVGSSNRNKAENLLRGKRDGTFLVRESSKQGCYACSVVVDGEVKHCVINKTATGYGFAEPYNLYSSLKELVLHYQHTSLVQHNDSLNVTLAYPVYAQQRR

For the compound `Fc1ccc(CNc2ncnc3ccc(F)cc23)cc1` [5aa, 6-Fluoro-N-(4-fluorobenzyl)-4-Quinazolinamine], the remaining activity at 10 µM amounted to 88% at DRAK2(h) (setting [2]); 71% on NEK3(h) (setting [2]); 96% in assay [1] (setting [2]); 108% on SGK2(h) (setting [2]); 95% on STK32A(h) (setting [2]); 126% on TBK1(h) (setting [2]).
For the compound `Fc1ccc(CCNc2ncnc3ccc(F)cc23)cc1` [5as, 6-Fluoro-N-[2-(4-Fluorophenyl)Ethyl]-4-Quinazolinamine], the remaining activity at 10 µM on DRAK2(h) (setting [3]) was found to be 73%; at NEK3(h) (setting [3]), 80%; in assay [1] (setting [3]), 93%; on SGK2(h) (setting [3]), 115%; at STK32A(h) (setting [3]) it was 99%; on TBK1(h) (setting [3]), 108%.
Regarding `Fc1ccc2ncnc(NCCc3ccc(Cl)cc3)c2c1` [5at, N-[2-(4-Chlorophenyl)Ethyl]-6-Fluoro-4-Quinazolinamine], the remaining activity at 10 µM at DRAK2(h) (setting [4]) is 88%; on NEK3(h) (setting [4]), 99%; in assay [1] (setting [4]), 91%; on SGK2(h) (setting [4]) it was 89%; on STK32A(h) (setting [4]), 100%; at TBK1(h) (setting [4]), 108%.
With `COc1ccc2ncnc(Nc3cccc(F)c3)c2c1` [5ay, N-(3-Fluorophenyl)-6-Methoxy-4-Quinazolinamine], the remaining activity at 10 µM on DRAK2(h) (setting [5]) is 65%; on NEK3(h) (setting [5]), 87%; in assay [1] (setting [5]), 81%; at SGK2(h) (setting [5]), 103%; at STK32A(h) (setting [5]), 103%; at TBK1(h) (setting [5]), 117%.
